≈ marks a conversion by molar mass, not a printed value. Read-outs that look alike come from different tables or passages of the source.
Key:
Type in all cases: cell-based, Staphylococcus aureus
[1] = test system: MSSA (KCCTC 1927); assay: Checkerboard synergy of phlorofucofuroeckol-A and β-lactams, MSSA KCTC 1927; settings: for MIC: Staphylococcus aureus, MSSA; for FIC index (b): β-lactam with phlorofucofuroeckol-A at 12.5 μg/ml; for FIC index (b) / FIC index (c): synergism ≦0.5, indifference >0.5 to ≦4, antagonism >4; for FIC index (c): β-lactam with phlorofucofuroeckol-A at 25 μg/ml
[2] = test system: MRSA (KCCM 40511); assay: Checkerboard synergy of phlorofucofuroeckol-A and β-lactams, MRSA KCCM 40511; settings: for MIC: Staphylococcus aureus; for FIC index (b): β-lactam with phlorofucofuroeckol-A at 12.5 μg/ml; for FIC index (b) / FIC index (c): synergism ≦0.5, indifference >0.5 to ≦4, antagonism >4; for FIC index (c): β-lactam with phlorofucofuroeckol-A at 25 μg/ml
Method: (§1) The interaction between phlorofucofuroeckol-A (PFF) and β-lactams including ampicillin, penicillin and oxacillin against MRSA was tested by the checkerboard method. The synergistic effect was evaluated as a fractional inhibitory concentration (FIC) index. The FIC was calculated as the MICS of an antibiotic or phlorofucofuroeckol-A (PFF) in combination divided by the MIC of the antibiotic or PFF alone as follows.
(§2) The FIC was then summed to derive the FIC index, which indicated synergy when index values were as follows:
(§3) synergism ≦≦0.5, indifference >0.5 to ≦≦4, antagonism >4.
(§4) FICA=MICA in combination/MICA, FICB=MICB in combination/MICB

[3] = test system: MRSA (KCCM 40510); assay: Checkerboard synergy of phlorofucofuroeckol-A and β-lactams, MRSA KCCM 40510; settings: for MIC: Staphylococcus aureus; for FIC index (b): β-lactam with phlorofucofuroeckol-A at 12.5 μg/ml; for FIC index (b) / FIC index (c): synergism ≦0.5, indifference >0.5 to ≦4, antagonism >4; for FIC index (c): β-lactam with phlorofucofuroeckol-A at 25 μg/ml
Method: as §1, §2, §3, §4

[4] = test system: MSSA (KCTC 1927); assay: Minimum inhibitory concentration, two-fold serial dilution, MSSA KCTC 1927; settings: Staphylococcus aureus
Method: (§5) All the bacterial strains used for the Example were obtained from the Korean Collection of Type Cultures (KCTC; Daejeon, Korea) and the Korean Culture Center of Microorganisms (KCCM; Seoul, Korea). The bacterial strains used for the Example were methicillin-susceptible S. aureus (MSSA; KCTC 1927), two MRSA strains (KCCM 40510 and KCCM 40511). All strains were grown in Mueller-Hinton broth (MHB; Difco, Detroit, USA) or Tryptic soy broth (TSB; Difco) for minimum inhibitory concentration (MIC) assay and in Mueller-Hinton agar (MHA; Difco) for disc diffusion.
(§6) MIC means the lowest concentration of antimicrobials that will inhibit the visible growth of microorganisms after overnight incubation. MICS of the extracts and vancomycin were determined by the two-fold serial dilution method in MHB.

[5] = test system: MRSA (KCCM 40511); assay: Minimum inhibitory concentration, two-fold serial dilution, MRSA KCCM 40511; settings: Staphylococcus aureus
Method: as §5, §6

[6] = test system: MRSA (KCCM 40510); assay: Minimum inhibitory concentration, two-fold serial dilution, MRSA KCCM 40510; settings: Staphylococcus aureus
Method: as §5, §6

[7] = in combination with phlorofucofuroeckol-A at 12.5 μg/ml, read-out: MIC of β-lactam (B)
[8] = in combination with phlorofucofuroeckol-A at 25 μg/ml, read-out: MIC of β-lactam (C)
[9] = without phlorofucofuroeckol-A, read-out: MIC of β-lactam (A)
[10] = Table 5, PFF and β-lactams, mecA negative strain, read-out: MIC
[11] = Table 6, isolated phlorotannins, read-out: MIC
[12] = Table 5, PFF and β-lactams, mecA positive strain, read-out: MIC

Structure (SMILES) | MIC [1, 7] | MIC [1, 8] | MIC [1, 9] | FIC index (b) [1] | FIC index (c) [1] | MIC [2, 7] | MIC [2, 8] | MIC [2, 9] | FIC index (b) [2] | FIC index (c) [2] | MIC [3, 7] | MIC [3, 8] | MIC [3, 9] | FIC index (b) [3] | FIC index (c) [3] | MIC [4, 10] | MIC [5] | MIC [6, 11] | MIC [4, 11] | also measured
CC1(C)S[C@@H]2[C@H](NC(=O)[C@H](N)c3ccccc3)C(=O)N2[C@H]1C(=O)O [Ampicillin, ampicillin] | 0.063 µg/mL | 0.063 µg/mL | 0.063 µg/mL | 1.391 | 1.781 | 2 µg/mL | 1 µg/mL | 512 µg/mL | 0.395 | 0.393 | 16 µg/mL | 8 µg/mL | 512 µg/mL | 0.422 | 0.407 | 0.063 µg/mL (≈ 0.18 µM) |  |  |  | 
Oc1cc(O)c2oc3cc(O)c4oc5cc(O)cc(O)c5oc4c3oc2c1 [DD, dioxinodehydroeckol] |  |  |  |  |  |  |  |  |  |  |  |  |  |  |  |  | 64 µg/mL (≈ 173 µM) |  |  | MIC [6]: 64 µg/mL (≈ 173 µM); MIC [4]: 64 µg/mL (≈ 173 µM)
Oc1cc(O)cc(Oc2c(O)cc(O)c3c2Oc2c(O)cc(Oc4c(O)cc(Oc5c(O)cc(O)c6c5Oc5c(O)cc(O)cc5O6)cc4O)cc2O3)c1 [DE, dieckol] |  |  |  |  |  |  |  |  |  |  |  |  |  |  |  |  | 64 µg/mL (≈ 86.2 µM) | 32 µg/mL (≈ 43.1 µM) | 32 µg/mL (≈ 43.1 µM) | 
Oc1cc(O)cc(Oc2c(O)cc(O)c3c2Oc2c(O)cc(O)cc2O3)c1 [EK, eckol] |  |  |  |  |  |  |  |  |  |  |  |  |  |  |  |  |  | 64 µg/mL (≈ 172 µM) | 64 µg/mL (≈ 172 µM) | MIC [5, 11]: 64 µg/mL (≈ 172 µM)
Cc1onc(-c2ccccc2)c1C(=O)N[C@@H]1C(=O)N2[C@@H]1SC(C)(C)[C@@H]2C(=O)O [Oxacillin, oxacillin] | 0.063 µg/mL | 0.063 µg/mL | 0.063 µg/mL | 1.391 | 1.781 | 1 µg/mL | 0.5 µg/mL | 128 µg/mL | 0.399 | 0.395 | 8 µg/mL | 4 µg/mL | 256 µg/mL | 0.422 | 0.407 | 0.063 µg/mL (≈ 0.157 µM) |  |  |  | MIC [5, 12]: 128 µg/mL (≈ 319 µM); MIC [6, 12]: 256 µg/mL (≈ 638 µM)
